The target in test [1] is Photoreceptor-specific nuclear receptor (Homo sapiens, UniProt Q9Y5X4). Type of test: functional.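 Note: potency for compounds that break the NR2E3 corepressor complex and count as activators.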
In test [2] the target is Peroxisome proliferator-activated receptor gamma/Nuclear receptor corepressor 2 (Homo sapiens, UniProt P37231+Q9Y618). Type of test: functional.
Test [3] in a line: inhibitors of firefly luciferase expression or activity, dose response, H4 neuroglioma cells, luminescence (AID 1990). Type of test: functional, cell-based.
The nature of test [4]: Luminescence Cell-Based Dose Response HTS to Identify Inhibitors of 5'UTR Stem-Loop Driven Prion Protein mRNA Translation in H4 Neuroglioblastoma Cells. [Related pubchem assays: 1827 (Project Summary), 1813 (Primary HTS)]. Type of test: functional.
A short description of test [5]: inhibitors of SNCA 5'UTR-driven reporter translation, confirmation, H4 neuroglioma cells, luminescence (AID 1988). In kind it is functional, cell-based.
Test [6] can be described thus: Luminescence-based counterscreen assay for KLF5 inhibitors: dose response cell-based high throughput screening assay to identify cytotoxic compounds using the IEC-6 intestinal epithelial cell line. [Related pubchem assays: 1700 (Primary screen.), 1834 (Confirmation screen.), 1858 (Summary AID.), 1905 (Counterscreen.)]. Type of test: functional. For orientation: The purpose of a counterscreen is to sort out artefacts and off-target activity.

Test [7] can be described thus: MC4R antagonists, dose response, counter-screen for LGR2 antagonist project, cell-based, plate reader, cherry pick (AID 743444).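 Note: transfected HEK 293 cells stimulated with alpha-MSH peptide; potency of inhibitors of the alpha-MSH evoked signal.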 In kind it is functional.
Test [8] is described as follows: HepG2 cell cytotoxicity, dose response, cytotoxicity control, plate reader, cherry-pick, antagonist series (AID 743416). Type of test: functional, cell-based.
Test [9] can be described thus: A549 cell cytotoxicity, dose response, cytotoxicity control, plate reader, cherry-pick, antagonist series (AID 743412). In kind it is functional, cell-based.
A short description of test [10]: HEK293 cell cytotoxicity, dose response, cytotoxicity control, plate reader, cherry-picked samples (AID 743446). In kind it is functional, cell-based.
A short description of test [11]: LGR2 antagonists, dose response, cell-based, HEK293, CRE-luciferase reporter, cherry pick, set 2 (AID 743343).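 Note: transfected cells were stimulated with diluted bursicon conditioned medium after compound addition.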 Type of test: functional. (In general: A reporter such as luciferase makes a cellular process visible.)
Test [12] addresses Luciferin 4-monooxygenase (Photinus pyralis, UniProt P08659). As to the kind of experiment: firefly luciferase enzyme inhibitors, dose response, biochemical, luminescence (AID 1891).
Test [13] can be described thus: Luminescence Cell-Based Dose Confirmation HTS to Identify Inhibitors of Platelet Dense Granule Release. [Related pubchem assays: 1663 (Primary HTS), 1678 (Summary of Project)]. In kind it is functional.
For test [14], the system named is Streptococcus. In words: Luminescence Microorganism-Based Dose Response Follow up to Identify Compounds Cytotoxic to Streptococcus. [Related pubchem assays: 1677 (Project Summary), 1915, 1914, 1902 (Retest at Dose), 1900 (Counter Screen), 1662 (Primary HTS)]. Type of test: functional, organism-based.
The target in test [15] is T1, Streptokinase A (Streptococcus pyogenes serotype M1, UniProt P10520).
T1 sequence (P10520 whole entry): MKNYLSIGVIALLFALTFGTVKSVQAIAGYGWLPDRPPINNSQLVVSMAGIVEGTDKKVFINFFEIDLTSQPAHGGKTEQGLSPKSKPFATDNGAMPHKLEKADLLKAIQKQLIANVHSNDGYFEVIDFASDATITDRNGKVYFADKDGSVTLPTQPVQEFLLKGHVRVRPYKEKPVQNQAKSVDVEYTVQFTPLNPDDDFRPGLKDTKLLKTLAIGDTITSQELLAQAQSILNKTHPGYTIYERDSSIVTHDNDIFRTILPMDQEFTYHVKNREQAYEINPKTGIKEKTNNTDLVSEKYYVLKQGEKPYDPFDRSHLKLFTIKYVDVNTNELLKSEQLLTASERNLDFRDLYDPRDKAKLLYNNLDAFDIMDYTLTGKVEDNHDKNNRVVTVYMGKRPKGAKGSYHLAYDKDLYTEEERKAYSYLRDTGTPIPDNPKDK
As to the kind of experiment: S. pyogenes streptokinase expression inhibitors, potency, dose response, plasminogen activation absorbance, OD405 (AID 1914).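 Note: secreted streptokinase activity via plasminogen activation per viability signal from cell pellet.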 Type of test: functional, Streptococcus pyogenes M1 GAS.

Test [16] deals with Streptococcus. In words: Group A Streptococcus viability loss, dose response, counter-screen for streptokinase expression inhibitor project, luminescence, BacTiterGlo (AID 1915).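 Note: potency for reduction of bacterial viability or growth.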 Conditions: read-out: EC50. Type of test: functional, organism-based.
A short description of test [17]: Luminescence Cell-Based Dose Retest to Confirm Inhibitors of Cancer Stem Cells. [Related pubchem assays (depositor defined):AID2717, AID2721]. In kind it is functional. To be noted: Homo sapiens.
For test [18], the system named is INS1. As to the kind of experiment: beta cell apoptosis inhibitors, cytokine rescue, dose response, luminescence, retest (AID 449756).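 Note: cell death triggered by IL-1 beta plus TNF-alpha plus IFN-gamma mixture; protective hits raise ATP signal compared with cytokine alone wells.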 Type of test: functional, cell-based. To be noted: Rattus norvegicus.
The subject of test [19] is Streptococcus sp. 'group A'. In words: growth inhibition of control SK(-) GAS strain, dose response, counter-screen for streptokinase expression inhibitor project, luminescence, kanamycin, BacTiterGlo, confirmation (AID 1900). Type of test: functional, organism-based.
Test [20] is described as follows: control 3'UTR Renilla luciferase suppression, dose response, counter-screen for Shn3 inhibitor project, cell-based, Clone20-Shn3RL, cherry-picked (AID 624133). In kind it is functional.
Test [21] in a line: Shn3 3'UTR reporter inhibitors, dose response, cell-based, Clone20 osteoblasts, firefly luciferase, cherry-picked (AID 624132).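 Note: firefly luciferase luminescence from reporter carrying the Shn3 3'UTR in osteoblasts.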 Type of test: functional.
Test [22] deals with T2, Neuropeptides B/W receptor type 1 (Homo sapiens, UniProt P48145).
T2 sequence (P48145 whole entry): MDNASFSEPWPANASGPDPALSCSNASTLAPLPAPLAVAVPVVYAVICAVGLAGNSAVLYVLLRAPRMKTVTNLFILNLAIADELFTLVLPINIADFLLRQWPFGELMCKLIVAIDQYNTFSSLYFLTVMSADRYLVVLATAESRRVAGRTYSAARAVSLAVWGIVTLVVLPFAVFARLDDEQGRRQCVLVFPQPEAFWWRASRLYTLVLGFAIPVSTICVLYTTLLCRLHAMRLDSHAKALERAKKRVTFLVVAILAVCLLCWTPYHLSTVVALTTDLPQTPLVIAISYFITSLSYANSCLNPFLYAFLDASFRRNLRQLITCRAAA
In words: Fluorescence-based dose response cell-based high throughput screening assay to identify antagonists of the G-protein coupled receptor 7 (GPR7). [Related pubchem assays: 1952 (Screening assay (GPR7 antagonists).), 1880 (Summary AID.)]. Type of test: functional.

Test [23] has as its target Melanin-concentrating hormone receptor 1 (Homo sapiens, UniProt Q99705). In words: Fluorescence-based counterscreen for antagonists of the G-protein coupled receptor 7 (GPR7): cell-based high throughput dose response assay to identify antagonists of the melanin-concentrating hormone receptor 1 (MCHR1). Type of test: functional.
The target in test [24] is T3, Insulin-degrading enzyme (Homo sapiens, UniProt P14735).
T3 sequence (P14735 whole entry): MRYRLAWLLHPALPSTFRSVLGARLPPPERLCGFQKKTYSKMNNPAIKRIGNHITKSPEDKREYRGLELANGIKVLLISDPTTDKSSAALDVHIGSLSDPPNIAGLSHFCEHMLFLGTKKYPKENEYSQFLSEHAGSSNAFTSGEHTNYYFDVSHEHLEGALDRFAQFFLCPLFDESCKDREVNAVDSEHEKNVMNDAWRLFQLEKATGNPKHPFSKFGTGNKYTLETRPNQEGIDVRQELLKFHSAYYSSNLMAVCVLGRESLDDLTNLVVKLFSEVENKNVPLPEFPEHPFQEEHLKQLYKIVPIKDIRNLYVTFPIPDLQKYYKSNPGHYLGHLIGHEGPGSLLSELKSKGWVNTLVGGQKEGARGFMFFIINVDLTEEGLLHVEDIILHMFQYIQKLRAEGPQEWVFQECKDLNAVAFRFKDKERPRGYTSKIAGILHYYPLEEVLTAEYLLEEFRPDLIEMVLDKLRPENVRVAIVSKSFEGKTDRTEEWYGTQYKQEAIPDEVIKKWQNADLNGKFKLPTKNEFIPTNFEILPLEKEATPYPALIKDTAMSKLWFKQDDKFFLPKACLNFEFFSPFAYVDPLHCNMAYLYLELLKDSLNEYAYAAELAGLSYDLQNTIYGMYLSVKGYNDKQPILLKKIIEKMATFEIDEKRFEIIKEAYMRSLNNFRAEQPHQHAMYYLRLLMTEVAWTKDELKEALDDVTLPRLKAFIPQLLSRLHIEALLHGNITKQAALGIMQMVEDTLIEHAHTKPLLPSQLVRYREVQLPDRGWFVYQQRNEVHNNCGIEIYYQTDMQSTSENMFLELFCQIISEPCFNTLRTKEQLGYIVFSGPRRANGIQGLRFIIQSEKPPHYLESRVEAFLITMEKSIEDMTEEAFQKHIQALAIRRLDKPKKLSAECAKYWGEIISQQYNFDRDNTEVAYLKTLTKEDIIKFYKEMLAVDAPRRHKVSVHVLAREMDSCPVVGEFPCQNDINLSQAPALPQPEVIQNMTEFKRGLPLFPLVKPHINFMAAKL
In words: Dose Response: Fluorescence polarization-based cell-based high throughput dose response assay for inhibitors of insulin-degrading enzyme (IDE). [Related pubchem assays: 434962 (Primary screen (IDE inhibitors in singlicate)), 449730 (Counterscreen (Cytotoxicity in triplicate)), 435028 (Confirmation (IDE inhibitors in triplicate)), 434984 (Summary …. In kind it is functional. (In fluorescence polarisation assays a small probe gives low polarisation when free and higher when bound to something large.)

The nature of test [25]: Counterscreen for IDE inhibitors: Luminescence-based cell-based high throughput dose response assay to identify compounds that are cytotoxic to HEK cells. [Related pubchem assays: 434962 (Primary screen (IDE inhibitors in singlicate)), 449730 (Counterscreen (Cytotoxicity in triplicate)), 435028 (Confirmation (IDE inhibitors in triplicate)) …. In kind it is functional. Conditions: HEK293.

Test [26] addresses T4, High affinity choline transporter 1 (Homo sapiens, UniProt Q9GZV3).
T4 sequence (Q9GZV3 whole entry): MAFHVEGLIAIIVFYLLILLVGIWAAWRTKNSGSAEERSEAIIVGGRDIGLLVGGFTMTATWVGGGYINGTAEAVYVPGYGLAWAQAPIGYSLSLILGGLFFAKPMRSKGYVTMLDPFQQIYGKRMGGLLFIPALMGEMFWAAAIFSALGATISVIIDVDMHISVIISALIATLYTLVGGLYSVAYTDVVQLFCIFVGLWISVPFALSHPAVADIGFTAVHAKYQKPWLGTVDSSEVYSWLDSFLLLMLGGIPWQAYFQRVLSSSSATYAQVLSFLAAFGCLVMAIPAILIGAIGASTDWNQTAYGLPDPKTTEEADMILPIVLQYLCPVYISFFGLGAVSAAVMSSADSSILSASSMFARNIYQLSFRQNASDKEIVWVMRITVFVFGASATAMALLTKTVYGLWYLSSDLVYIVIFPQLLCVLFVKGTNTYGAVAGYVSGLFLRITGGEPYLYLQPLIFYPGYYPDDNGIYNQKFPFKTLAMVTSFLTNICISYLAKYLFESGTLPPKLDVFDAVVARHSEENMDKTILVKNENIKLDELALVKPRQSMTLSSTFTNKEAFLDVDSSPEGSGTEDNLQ
As to the kind of experiment: CHT inhibitors, dose response, cell-based, 5-point CRC, membrane potential dye (AID 504840). Type of test: functional.

Test [27] has as its target T4, High affinity choline transporter 1. In words: CHT inhibitors, dose response, cell-based, 10-point CRC, membrane potential dye (AID 588401).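 Note: membrane potential dye fluorescence of choline-evoked depolarization via CHT.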 Type of test: functional.

SMILES strings stand for the structures. Active and inactive are the calls of the source.

Chain of Photoreceptor-specific nuclear receptor (Q9Y5X4 whole entry): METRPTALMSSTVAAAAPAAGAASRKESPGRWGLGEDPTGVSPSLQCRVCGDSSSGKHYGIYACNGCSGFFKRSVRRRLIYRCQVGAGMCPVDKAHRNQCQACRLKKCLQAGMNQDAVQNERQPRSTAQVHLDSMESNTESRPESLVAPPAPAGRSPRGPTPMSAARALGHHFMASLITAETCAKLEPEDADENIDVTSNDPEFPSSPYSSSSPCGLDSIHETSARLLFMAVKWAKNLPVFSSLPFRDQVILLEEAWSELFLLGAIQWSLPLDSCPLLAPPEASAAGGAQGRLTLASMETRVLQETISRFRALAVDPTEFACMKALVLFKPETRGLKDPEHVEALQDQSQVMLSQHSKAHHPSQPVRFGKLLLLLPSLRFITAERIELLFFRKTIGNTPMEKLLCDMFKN
Chain of Peroxisome proliferator-activated receptor gamma/Nuclear receptor corepressor 2 (P37231 whole entry): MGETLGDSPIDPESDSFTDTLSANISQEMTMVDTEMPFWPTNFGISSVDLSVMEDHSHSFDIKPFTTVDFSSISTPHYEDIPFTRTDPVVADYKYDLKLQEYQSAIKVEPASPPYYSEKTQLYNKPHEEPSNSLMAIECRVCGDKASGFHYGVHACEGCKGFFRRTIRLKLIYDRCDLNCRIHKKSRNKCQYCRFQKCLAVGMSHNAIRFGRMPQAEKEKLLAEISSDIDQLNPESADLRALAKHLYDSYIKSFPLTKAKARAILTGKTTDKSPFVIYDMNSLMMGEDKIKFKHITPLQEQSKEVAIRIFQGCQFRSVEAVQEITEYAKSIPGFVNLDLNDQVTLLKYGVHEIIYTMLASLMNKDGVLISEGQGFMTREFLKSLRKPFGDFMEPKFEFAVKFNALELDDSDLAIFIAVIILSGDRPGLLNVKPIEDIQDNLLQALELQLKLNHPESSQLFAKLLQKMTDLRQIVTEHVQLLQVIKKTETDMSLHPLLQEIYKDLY
Chain of Peroxisome proliferator-activated receptor gamma/Nuclear receptor corepressor 2 (Q9Y618 whole entry): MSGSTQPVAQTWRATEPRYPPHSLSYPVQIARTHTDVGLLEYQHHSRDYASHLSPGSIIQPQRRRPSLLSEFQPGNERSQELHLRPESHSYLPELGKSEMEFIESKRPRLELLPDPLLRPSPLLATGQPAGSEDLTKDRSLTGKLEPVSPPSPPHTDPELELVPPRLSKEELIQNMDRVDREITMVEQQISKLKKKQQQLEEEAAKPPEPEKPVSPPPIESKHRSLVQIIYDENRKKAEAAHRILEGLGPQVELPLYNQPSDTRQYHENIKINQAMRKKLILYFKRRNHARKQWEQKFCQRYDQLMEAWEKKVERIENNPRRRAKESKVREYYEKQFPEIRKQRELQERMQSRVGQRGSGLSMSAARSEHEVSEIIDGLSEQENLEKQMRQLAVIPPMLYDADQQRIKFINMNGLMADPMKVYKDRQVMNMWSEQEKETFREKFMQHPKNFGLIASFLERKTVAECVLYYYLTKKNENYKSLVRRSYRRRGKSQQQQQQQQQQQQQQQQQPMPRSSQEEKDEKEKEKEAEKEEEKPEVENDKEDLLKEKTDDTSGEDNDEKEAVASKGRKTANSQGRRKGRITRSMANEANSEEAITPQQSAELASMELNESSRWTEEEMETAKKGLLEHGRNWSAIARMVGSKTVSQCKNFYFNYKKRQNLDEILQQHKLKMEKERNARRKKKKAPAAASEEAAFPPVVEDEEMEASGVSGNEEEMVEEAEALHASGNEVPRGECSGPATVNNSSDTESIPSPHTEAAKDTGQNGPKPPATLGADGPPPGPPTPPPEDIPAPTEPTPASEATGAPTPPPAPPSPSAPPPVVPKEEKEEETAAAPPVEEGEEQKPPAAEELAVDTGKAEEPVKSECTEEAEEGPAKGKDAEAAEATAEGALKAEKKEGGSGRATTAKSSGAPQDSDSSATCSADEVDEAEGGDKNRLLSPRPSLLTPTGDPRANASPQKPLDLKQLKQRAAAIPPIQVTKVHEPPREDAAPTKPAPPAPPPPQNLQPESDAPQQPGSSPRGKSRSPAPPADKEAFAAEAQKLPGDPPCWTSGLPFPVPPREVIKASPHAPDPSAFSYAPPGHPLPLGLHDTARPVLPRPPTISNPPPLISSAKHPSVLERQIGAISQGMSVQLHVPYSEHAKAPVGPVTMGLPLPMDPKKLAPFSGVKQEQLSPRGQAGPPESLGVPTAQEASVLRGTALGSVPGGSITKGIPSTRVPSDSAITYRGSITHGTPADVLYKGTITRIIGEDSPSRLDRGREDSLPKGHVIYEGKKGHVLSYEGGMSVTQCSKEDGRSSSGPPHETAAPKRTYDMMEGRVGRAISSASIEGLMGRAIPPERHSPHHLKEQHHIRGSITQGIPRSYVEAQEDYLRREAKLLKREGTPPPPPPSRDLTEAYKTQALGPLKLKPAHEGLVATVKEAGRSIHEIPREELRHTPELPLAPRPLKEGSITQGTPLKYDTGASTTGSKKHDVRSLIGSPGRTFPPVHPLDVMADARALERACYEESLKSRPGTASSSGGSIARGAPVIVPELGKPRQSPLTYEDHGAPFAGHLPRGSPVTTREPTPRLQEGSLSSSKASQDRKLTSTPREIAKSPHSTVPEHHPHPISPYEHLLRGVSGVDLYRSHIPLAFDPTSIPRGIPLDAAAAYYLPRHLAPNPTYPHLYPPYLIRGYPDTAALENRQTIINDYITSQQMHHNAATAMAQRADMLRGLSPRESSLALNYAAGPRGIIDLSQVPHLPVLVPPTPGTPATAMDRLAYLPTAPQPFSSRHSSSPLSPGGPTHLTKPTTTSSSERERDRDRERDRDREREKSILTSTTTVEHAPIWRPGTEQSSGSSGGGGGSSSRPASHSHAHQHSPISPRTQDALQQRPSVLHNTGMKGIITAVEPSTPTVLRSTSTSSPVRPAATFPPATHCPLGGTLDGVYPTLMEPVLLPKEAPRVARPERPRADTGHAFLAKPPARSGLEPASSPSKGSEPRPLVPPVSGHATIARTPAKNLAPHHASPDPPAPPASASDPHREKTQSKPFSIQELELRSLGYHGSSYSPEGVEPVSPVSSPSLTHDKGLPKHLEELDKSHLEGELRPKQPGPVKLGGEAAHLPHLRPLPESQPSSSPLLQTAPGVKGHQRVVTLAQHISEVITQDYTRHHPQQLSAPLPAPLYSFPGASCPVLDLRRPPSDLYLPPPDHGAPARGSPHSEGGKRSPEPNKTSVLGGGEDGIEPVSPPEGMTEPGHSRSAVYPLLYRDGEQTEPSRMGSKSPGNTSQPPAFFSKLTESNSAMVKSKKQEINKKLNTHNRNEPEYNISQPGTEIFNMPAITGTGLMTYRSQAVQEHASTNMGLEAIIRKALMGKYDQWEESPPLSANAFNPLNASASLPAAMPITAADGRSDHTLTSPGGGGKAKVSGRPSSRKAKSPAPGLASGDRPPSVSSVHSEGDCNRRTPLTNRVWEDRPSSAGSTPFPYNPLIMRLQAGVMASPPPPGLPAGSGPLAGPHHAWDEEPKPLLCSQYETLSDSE
Chain of Luciferin 4-monooxygenase (P08659 whole entry): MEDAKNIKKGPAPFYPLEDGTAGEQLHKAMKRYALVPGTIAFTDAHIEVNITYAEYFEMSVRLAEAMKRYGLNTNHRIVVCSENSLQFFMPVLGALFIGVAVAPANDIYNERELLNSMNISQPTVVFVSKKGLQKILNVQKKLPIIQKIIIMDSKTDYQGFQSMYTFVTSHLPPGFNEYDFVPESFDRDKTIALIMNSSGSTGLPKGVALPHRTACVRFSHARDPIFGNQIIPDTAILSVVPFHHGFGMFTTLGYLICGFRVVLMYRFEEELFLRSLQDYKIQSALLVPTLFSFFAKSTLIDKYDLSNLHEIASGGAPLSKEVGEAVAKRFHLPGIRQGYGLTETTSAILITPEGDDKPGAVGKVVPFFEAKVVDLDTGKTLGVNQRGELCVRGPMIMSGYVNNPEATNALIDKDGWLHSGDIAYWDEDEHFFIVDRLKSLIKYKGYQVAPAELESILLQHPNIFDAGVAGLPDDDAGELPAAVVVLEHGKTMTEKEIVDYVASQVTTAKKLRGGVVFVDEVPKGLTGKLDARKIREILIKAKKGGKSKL
Chain of Melanin-concentrating hormone receptor 1 (Q99705 whole entry): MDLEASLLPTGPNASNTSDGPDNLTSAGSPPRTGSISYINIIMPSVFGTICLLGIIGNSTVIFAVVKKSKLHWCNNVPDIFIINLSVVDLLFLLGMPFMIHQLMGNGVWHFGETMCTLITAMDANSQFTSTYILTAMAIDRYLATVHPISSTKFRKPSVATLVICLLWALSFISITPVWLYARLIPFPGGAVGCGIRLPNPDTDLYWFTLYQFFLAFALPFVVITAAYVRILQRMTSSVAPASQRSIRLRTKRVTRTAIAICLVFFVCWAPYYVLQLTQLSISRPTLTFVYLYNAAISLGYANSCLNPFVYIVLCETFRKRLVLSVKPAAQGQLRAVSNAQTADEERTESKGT

Consider `CCCCOc1ccc(-c2c(C#N)c(S)nc(C)c2C(=O)Nc2ccccc2)cc1`, for which the IC50 in test [1] is 0.33 µM (active); in [2] it was 0.778 µM (active).

As to `CCc1ccn2cc(-c3ccc4c(c3)OCO4)nc2c1`, the EC50 was 0.239 µM (active) in test [3]; < 0.1 µM (active) in test [4]; 0.158 µM (active) in test [5]; 2.16 µM (active) in test [12]; 8.85 µM (active) in test [13]. The IC50 in test [6] was 21.5 µM (not active). In addition, the AC50 in test [7] was 1.5 µM (active); in test [8] it was > 52 µM (inactive); in [9] it was > 52 µM (inactive); in test [10], > 52 µM (inactive); in test [11] it was 1.22 µM (active).

`COC(=O)c1ccccc1NC(=O)c1nc(S(=O)(=O)Cc2ccccc2)ncc1Cl`: the EC50 in test [14] is > 56 µM (not active); in [15], 3.08 µM (active); in test [16] it was > 150 µM (not active); in test [19], > 50 µM (not active). Also, the AC50 was 1.84 µM (active) in test [17], 6.88 µM (active) in test [18], 8.03 µM (active) in test [20] and 0.428 µM (active) in test [21].

With `N=c1c(C(=O)NCCc2ccccc2)cc2c(=O)n3ccccc3nc2n1CCCN1CCOCC1`, the IC50 in [22] and in test [23] was > 43.8 µM (not active) in each case.

Regarding `CC(C)(C)NC(=O)NC(=O)CN1CCN(c2cccc(Cl)c2)CC1`, the IC50 in [24] was > 55.9 µM (not active); in test [25], 19.3 µM (not active); in test [26] it was 8.64 µM (active); in test [27], 3.16 µM (active).

On to `CCOc1cccc(C2C(C(=O)c3ccc(C)o3)=C(O)C(=O)N2CCCn2ccnc2)c1` (centres undefined), for which the IC50 is on record as > 39.8 µM (not active) in [1] and 16.8 µM (not active) in [2].

A word on the IC50: it is the concentration needed to halve the response being measured. The term EC50 denotes the concentration giving half of the maximal effect. As a reminder, the AC50 is the concentration at which the activity in the assay is half-maximal.

Values taken from ChEMBL document CHEMBL1201862, “PubChem BioAssay data set” (2004).
